Source: paper PMC6383986, “Fragment-Based Covalent Ligand Screening Enables Rapid Discovery of Inhibitors for the RBR E3 Ubiquitin Ligase HOIP” (Journal of the American Chemical Society, 2019)

Legend:
[1] = target: T1, full-length recombinant IRAK4-FLAG (Homo sapiens, UniProt Q9NWZ3); assay: LCMS labelling of recombinant IRAK4; format: binding; conditions: 300 μM compound, 1.5 μM IRAK4, 1 h
T1 construct: recombinant full length IRAK4-FLAG; His6 (with the rest of the FlagHisAvi vector tag) (C, cleaved yes); made in house; host or cells: Sf9 insect cells (baculovirus)
Description: filter BODIPY FP S-pol 595). The percentage activity was plotted against different compound concentrations and fitted using the IC50 – 4 parameter logistic using GraFit7 Software (Supplementary Figure S17). Percentage activity was calculated by dividing each value by values for no inhibition, then multiplying it by 100. Background correction was carried out by subtracting […]
Two independent experiments were carried out in duplicate.
IRAK4 (1.5 µM) was incubated with compound (11a) (300 µM) in water at ambient temperature for 1 h (final volume 20 µL), and analyzed by LCMS. […]
kinase activity. A) Serial dilutions of compound (11a) (200 µM final top concentration) and IRAK4 […]
concentration) for 1 h before adding 5TAMRA-[…]-NH2 (100 nM final […]
concentration) and ATP (50 μM final concentration). […]
independent experiments, each performed in duplicate.
B) IRAK4 (1.5 µM) was incubated with compound (11a) (300 µM) for 1 h and analyzed by LCMS. The DMSO control was incubated for 5 h. For reference GT-hIRAK4-FLAG (tetraphosphorylated; MW = 53003 Da), compound (11a) (MW = 290 Da).
(1 picture or pasted object on this page, not shown here)

[2] = target: T2, ALDH6A1 (Homo sapiens, UniProt Q02252); assay: ABPP quantitative MS, MCF7; format: cell-based; conditions: 30 μM (11a) 7 h vs DMSO, then 3 μM (15) 2 h
T2 construct: endogenous in cells; host or cells: HEK293T (A21); MCF7 (A27)
Description: (§1) control and cells treated with control compounds (11i) and (17) at 30 µM). HOIP RBR wild type […]
(§2) nm, indicating low to no labelling by (11a), and a dominant signal from the 800 channel (green).
(§3) C = HOIP RBR control (0.5 µg).
(§4) 5.2 Activity-based protein profiling – Enrichment and LC-MS
(§5) Cell culture and transfection, compound treatment, ha rvest and lysis
(§6) HEK293T cells were cultured and transfected as describ ed in section 4.8 above. MCF7 cells were seeded in 100 mm Petri dishes at 6 × 10^5 cells/dish and cultured overnight at 37 °C as described in section 4.8 above. Both cell types were treated with inhibitor (11a) (30 µM final concentration) or DMSO as described above, incubating for 7 h at 37 °C, followed by addition of clickable probe (15) (3 µM final concentration) and incubation for an additional 2 h. The cells were then harvested and lysed (50 mM Tris-HCl, pH 7.5, 1.5 mM MgCl2, 150 mM NaCl, 5% glycerol, 0.8% v/v IGEPAL-CA630, 25 mM NaF, 1 mM Na3VO4, complete protease inhibitor), and the protein concentration was determined by the BCA assay as described in section 4.7 above.
(§7) Enrichment of TCO-labelled proteins
(§8) Similar to a previously described protocol,22 tetrazine beads were generated by incubating high capacity neutravidin beads (500 µL; Thermo Scientific) with 0.1 µmol tetrazine-PEG4-biotin (Jena Bioscience) in PBS buffer over night at 4 °C, followed by blocking with 5 µL 100 mM biotin in DMSO for 30 minutes at 4 °C. The beads were washed 3× with buffer (50 mM Tris-HCl pH 7.4, 5% glycerol, 1.5 mM MgCl2, 150 mM NaCl, 1 mM Na3VO3, 5 mM NaF) supplemented with 0.4% IGEPAL CA-630 and adjusted to a 5% v/v slurry.
(§9) Lysate with a protein concentration of approx. 2 mg/mL (500 µL) were added to the TCO beads (35 µL) on a 96-well filter plate (Porvair, Dunn #240002) and incubated at 4°C for 2 h. After incubation, beads were washed using a vacuum manifold with 5 mL wash buffer 1 (WB1) (50 mM […]
(§10) (50 mM HEPES pH 8.5, 2 M urea), and 5 mL WB4 (50 mM HEPES pH 8.5). Proteins were then eluted by on bead digestion: 60 µL elution buffer (50 mM HEPES pH 8.5, 5 mM Tris-(2-carboxyethyl)phosphine, 15 mM chloroacetamide, 0.004 µg LysC/ µL (Wako chemicals), 0.004 µg trypsin/µL (Promega)) were added to the washed beads and incubated over night at room temperature. Eluates were collected by centrifugation, beads incubated with an additional 60 µL WB4, eluted and both eluates were combined and lyophilized. […]
(§11) proportional to the number of ions; this measure is referred to as ion area.24 Spectra matching to peptides were filtered according to the following criteria: mascot ion score >15, signal-to-background of the precursor ion >4, and signal -to-interference >0.5. Fold-changes were corrected for isotope purity and adjusted for interference caused by co-eluting nearly isobaric peaks.25 Protein quantification was derived from individual spectra matching to distinct peptides by using a sum-based bootstrap algorithm; 95% confidence intervals were calculated for all protein fold-changes that were quantified with more than three spectra.23 Relative protein abundance s were generated on the basis of MS1 abundances .26 Briefly, XIC peaks were matched to identified peptides. […] These values were then summed, and the mean was calculated.
(§12) In cases where fewer than 3 sequences were associated, the mean was calculated using XIC intensities from either one or two sequences.
(§13) Proteins were filtered for >1 quantified spectra matches (qusm). Residual binding was calculated […]

[3] = target: T3, SMG9 (Homo sapiens, UniProt Q9H0W8); assay: ABPP quantitative MS, MCF7; format: cell-based; conditions: 30 μM (11a) 7 h vs DMSO, then 3 μM (15) 2 h
T3 construct: endogenous in cells; host or cells: MCF7
Description: as §1, §2, §3, §4, §5, §6, §7, §8, §9, §10, §11, §12, §13

[4] = target: T4, SRBD1 (Homo sapiens, UniProt Q8N5C6); assay: ABPP quantitative MS, MCF7; format: cell-based; conditions: 30 μM (11a) 7 h vs DMSO, then 3 μM (15) 2 h
T4 construct: endogenous in cells; host or cells: MCF7
Description: as §1, §2, §3, §4, §5, §6, §7, §8, §9, §10, §11, §12, §13

[5] = target: T5, DHX36 (Homo sapiens, UniProt Q9H2U1); assay: ABPP quantitative MS, MCF7; format: cell-based; conditions: 30 μM (11a) 7 h vs DMSO, then 3 μM (15) 2 h
T5 construct: endogenous in cells; host or cells: MCF7
Description: as §1, §2, §3, §4, §5, §6, §7, §8, §9, §10, §11, §12, §13

[6] = target: T6, GCLC (Homo sapiens, UniProt P48506); assay: ABPP quantitative MS, MCF7; format: cell-based; conditions: 30 μM (11a) 7 h vs DMSO, then 3 μM (15) 2 h
T6 construct: endogenous in cells; host or cells: MCF7
Description: as §1, §2, §3, §4, §5, §6, §7, §8, §9, §10, §11, §12, §13

[7] = target: T7, IRAK4 (Homo sapiens, UniProt Q9NWZ3); assay: IMAP-FP IRAK4 substrate phosphorylation assay; format: biochemical
T7 construct: recombinant full length IRAK4-FLAG; His6 (with the rest of the FlagHisAvi vector tag) (C, cleaved yes); made in house; host or cells: Sf9 insect cells (baculovirus)
T7 sequence (Q9NWZ3 whole entry): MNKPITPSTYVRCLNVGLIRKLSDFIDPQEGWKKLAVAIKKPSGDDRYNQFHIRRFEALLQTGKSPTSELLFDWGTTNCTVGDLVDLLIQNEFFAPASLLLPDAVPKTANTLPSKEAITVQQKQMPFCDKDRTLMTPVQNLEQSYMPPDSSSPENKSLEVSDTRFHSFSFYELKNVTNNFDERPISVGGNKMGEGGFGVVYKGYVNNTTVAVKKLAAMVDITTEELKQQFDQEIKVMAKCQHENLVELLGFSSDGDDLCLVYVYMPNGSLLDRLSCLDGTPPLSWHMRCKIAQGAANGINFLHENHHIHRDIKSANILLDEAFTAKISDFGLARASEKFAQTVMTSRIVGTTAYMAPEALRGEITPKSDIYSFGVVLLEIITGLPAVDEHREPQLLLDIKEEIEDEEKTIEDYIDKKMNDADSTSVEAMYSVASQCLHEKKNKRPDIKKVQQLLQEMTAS

T2 sequence (Q02252 34-535): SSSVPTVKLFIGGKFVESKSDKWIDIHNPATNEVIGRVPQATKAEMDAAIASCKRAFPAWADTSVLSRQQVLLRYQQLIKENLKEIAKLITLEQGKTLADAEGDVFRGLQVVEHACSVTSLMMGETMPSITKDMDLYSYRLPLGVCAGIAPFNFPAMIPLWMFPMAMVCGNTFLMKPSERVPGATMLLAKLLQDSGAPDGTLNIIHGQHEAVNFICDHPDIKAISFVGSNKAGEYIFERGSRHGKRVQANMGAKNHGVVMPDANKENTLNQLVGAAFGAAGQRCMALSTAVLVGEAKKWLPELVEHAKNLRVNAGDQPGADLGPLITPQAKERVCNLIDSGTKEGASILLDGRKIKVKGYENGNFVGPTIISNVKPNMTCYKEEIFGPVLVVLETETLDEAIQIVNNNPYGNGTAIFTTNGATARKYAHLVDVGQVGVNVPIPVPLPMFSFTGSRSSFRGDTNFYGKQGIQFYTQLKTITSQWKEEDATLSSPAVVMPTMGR
T5 sequence (Q9H2U1 whole entry): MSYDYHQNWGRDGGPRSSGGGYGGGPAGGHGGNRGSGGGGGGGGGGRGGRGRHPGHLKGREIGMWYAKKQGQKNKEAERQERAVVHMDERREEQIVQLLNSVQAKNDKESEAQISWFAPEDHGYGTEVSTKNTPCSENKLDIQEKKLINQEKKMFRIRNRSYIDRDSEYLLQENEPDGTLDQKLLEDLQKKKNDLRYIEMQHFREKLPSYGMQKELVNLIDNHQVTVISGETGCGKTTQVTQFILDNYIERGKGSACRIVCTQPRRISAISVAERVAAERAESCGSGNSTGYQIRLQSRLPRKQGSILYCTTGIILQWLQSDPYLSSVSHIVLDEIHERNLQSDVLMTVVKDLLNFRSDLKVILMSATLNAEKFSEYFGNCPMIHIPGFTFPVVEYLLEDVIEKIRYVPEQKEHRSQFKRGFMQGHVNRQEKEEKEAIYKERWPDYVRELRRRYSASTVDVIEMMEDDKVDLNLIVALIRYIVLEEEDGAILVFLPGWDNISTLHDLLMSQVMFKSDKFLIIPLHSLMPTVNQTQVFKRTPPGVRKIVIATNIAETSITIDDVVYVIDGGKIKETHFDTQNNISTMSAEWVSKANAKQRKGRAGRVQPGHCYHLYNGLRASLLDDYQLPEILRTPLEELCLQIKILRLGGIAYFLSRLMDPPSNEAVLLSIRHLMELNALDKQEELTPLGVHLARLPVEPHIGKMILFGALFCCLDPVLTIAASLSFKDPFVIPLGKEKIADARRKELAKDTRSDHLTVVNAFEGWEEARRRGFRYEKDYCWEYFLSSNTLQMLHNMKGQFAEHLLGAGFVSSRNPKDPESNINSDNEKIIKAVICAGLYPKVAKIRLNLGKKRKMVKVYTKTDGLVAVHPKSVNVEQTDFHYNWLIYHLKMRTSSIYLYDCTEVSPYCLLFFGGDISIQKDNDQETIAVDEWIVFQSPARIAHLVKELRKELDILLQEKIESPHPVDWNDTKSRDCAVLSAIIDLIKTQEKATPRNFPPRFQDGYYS
T3 sequence (Q9H0W8 whole entry): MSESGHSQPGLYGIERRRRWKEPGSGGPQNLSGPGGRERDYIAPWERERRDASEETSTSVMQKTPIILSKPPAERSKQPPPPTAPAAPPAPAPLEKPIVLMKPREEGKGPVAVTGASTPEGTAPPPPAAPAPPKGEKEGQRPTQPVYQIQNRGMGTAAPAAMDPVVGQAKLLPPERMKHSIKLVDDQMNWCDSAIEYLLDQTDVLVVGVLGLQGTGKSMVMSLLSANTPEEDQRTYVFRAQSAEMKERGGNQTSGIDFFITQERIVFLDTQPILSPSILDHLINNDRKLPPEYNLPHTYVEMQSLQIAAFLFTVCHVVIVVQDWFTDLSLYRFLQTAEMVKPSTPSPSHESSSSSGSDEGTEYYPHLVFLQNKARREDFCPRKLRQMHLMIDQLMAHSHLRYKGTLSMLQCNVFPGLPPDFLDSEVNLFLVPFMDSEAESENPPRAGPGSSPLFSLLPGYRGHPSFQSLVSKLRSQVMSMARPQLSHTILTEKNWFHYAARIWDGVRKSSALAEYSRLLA
T4 sequence (Q8N5C6 whole entry): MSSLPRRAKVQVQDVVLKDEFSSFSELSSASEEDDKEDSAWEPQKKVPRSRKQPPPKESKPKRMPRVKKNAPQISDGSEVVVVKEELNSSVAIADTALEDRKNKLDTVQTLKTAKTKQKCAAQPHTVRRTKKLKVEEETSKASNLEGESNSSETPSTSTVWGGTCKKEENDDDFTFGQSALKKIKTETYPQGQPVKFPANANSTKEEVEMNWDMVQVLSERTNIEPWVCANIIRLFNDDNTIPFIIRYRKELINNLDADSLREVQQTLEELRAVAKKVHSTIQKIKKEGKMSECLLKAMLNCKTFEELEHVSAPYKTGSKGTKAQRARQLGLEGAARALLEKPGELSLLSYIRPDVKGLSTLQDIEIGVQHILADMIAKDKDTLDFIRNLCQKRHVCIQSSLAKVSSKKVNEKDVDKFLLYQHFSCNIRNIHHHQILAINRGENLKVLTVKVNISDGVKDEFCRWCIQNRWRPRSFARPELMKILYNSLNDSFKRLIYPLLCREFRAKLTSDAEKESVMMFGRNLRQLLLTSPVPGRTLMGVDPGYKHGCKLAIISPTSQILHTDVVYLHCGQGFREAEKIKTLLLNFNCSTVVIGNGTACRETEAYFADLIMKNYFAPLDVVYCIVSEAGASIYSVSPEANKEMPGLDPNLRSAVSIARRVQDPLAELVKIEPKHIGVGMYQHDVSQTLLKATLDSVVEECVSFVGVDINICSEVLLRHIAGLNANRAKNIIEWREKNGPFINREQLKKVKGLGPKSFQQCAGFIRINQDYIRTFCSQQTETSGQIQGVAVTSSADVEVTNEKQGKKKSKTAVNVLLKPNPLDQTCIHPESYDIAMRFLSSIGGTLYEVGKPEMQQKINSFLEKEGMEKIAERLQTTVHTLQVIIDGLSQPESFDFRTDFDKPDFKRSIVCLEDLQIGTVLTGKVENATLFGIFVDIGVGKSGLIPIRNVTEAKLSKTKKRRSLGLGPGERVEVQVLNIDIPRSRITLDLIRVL
T1 sequence (Q9NWZ3 whole entry): as the sequence (Q9NWZ3 whole entry) above
T6 sequence (P48506 whole entry): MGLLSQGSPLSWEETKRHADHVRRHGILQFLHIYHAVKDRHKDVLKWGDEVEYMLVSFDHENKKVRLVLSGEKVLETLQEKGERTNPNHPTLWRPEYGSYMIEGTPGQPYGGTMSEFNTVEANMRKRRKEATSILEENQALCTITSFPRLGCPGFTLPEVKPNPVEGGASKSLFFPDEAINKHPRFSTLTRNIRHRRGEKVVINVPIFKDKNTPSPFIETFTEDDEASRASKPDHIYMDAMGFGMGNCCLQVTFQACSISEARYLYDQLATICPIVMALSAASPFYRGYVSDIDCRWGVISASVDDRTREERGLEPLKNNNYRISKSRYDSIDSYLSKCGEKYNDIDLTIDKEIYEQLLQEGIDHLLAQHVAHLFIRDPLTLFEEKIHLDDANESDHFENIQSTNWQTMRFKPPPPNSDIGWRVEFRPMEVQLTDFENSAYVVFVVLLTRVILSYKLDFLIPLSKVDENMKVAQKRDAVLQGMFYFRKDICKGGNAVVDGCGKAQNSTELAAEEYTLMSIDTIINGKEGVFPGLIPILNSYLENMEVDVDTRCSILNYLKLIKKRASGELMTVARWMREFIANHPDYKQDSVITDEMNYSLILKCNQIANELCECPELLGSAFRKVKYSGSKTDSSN

COC(=O)/C=C/CNC(=O)c1cc2c([nH]c1=O)CCCC2 [Compound 11a]
labelling of IRAK4-FLAG [1]: confirmed by LCMS | ratio: mean ratio between control and competition samples, ALDH6A1 [2]: -0.9838 log2 | ratio: mean ratio between control and competition samples, SMG9 [3]: -0.8383 log2 | ratio: mean ratio between control and competition samples, SRBD1 [4]: -0.7897 log2 | ratio: mean ratio between control and competition samples, DHX36 [5]: -0.8884 log2 | ratio: mean ratio between control and competition samples, GCLC [6]: -0.8853 log2 | IC50 ([7]; 1 h preincubation, 6 nM IRAK4, 50 μM ATP): > 200 µM | inhibition of IRAK4 substrate phosphorylation ([7]; concentrations up to 200 μM): no inhibition
